Several values for one entry are separate records, joined by “and”; a condition that tells them apart may be missing. Equal values may be shown once.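 Each compound was tested at five concentrations against cells in 96-well plates for 48 hours. GI50 = concentration required for 50% inhibition of growth. At the TGI there is no net growth.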

The results in this text go back to PubChem BioAssay (NCI).

Some test systems named below: NCI/ADR-RES ovarian; COLO 205 colon; TK-10 renal; MDA-MB-435; 786-0 renal; SNB-75 CNS; HOP-62 NSCLC; SF-268 CNS; NCI-H522 lung; SNB-19 CNS.
Assay in all cases: NCI tumour cell line growth inhibition, 48 h

As to `CCOC(=O)C1=C(C)NC(=O)NC1CN1C(=O)c2ccccc2C1=O` (centres undefined), the GI50 in the test on NCI/ADR-RES ovarian, in the test on COLO 205 colon, in the test with TK-10 renal, with MDA-MB-435, in the test on 786-0 renal and in the test with SNB-75 CNS was greater than 100 µM in each case. For the same compound, the GI50 in the test on HOP-62 NSCLC, with SF-268 CNS, in the test with NCI-H522 lung and with SNB-19 CNS was greater than 100 µM in each case. The TGI in the test with NCI/ADR-RES ovarian, in the test with COLO 205 colon, with TK-10 renal, in the test with MDA-MB-435, in the test on 786-0 renal and in the test on SNB-75 CNS was greater than 100 µM in each case. For the same compound, the TGI with HOP-62 NSCLC, in the test on SF-268 CNS, in the test with NCI-H522 lung and with SNB-19 CNS was greater than 100 µM throughout.

As to `N#Cc1c(NC(=O)c2ccc(F)cc2)sc2c1CCCC2`, the GI50 in the test with NCI/ADR-RES ovarian, in the test with COLO 205 colon, in the test with TK-10 renal, in the test on MDA-MB-435, in the test with 786-0 renal and in the test on SNB-75 CNS was greater than 25 µM in each case. Further, the GI50 in the test on HOP-62 NSCLC, in the test with SF-268 CNS, in the test on NCI-H522 lung and in the test with SNB-19 CNS was greater than 25 µM throughout. Further, the TGI in the test with NCI/ADR-RES ovarian, in the test on COLO 205 colon, in the test on TK-10 renal, with MDA-MB-435, with 786-0 renal and in the test with SNB-75 CNS was greater than 25 µM each time. Also, the TGI with HOP-62 NSCLC, in the test with SF-268 CNS, with NCI-H522 lung and in the test on SNB-19 CNS was greater than 25 µM each time.

For the compound `COc1ccc(C(=NN=C(N)N)c2ccc(OC)cc2)cc1`, the GI50 was 21.1 µM in the test on NCI/ADR-RES ovarian; 1.79 µM in the test with COLO 205 colon; 4.26 µM in the test on TK-10 renal; 1.78 µM with MDA-MB-435; 3.29 µM in the test with 786-0 renal; 1.84 µM in the test on SNB-75 CNS. In addition, the GI50 in the test with HOP-62 NSCLC was 3.9 µM; with SF-268 CNS, 2.34 µM; with NCI-H522 lung, 2.9 µM; in the test with SNB-19 CNS, 3.72 µM. In addition, the TGI with NCI/ADR-RES ovarian stood at 75.6 µM; in the test with COLO 205 colon, 3.97 µM; in the test on TK-10 renal, 14.5 µM; with MDA-MB-435, 4.33 µM; with 786-0 renal it was 13.1 µM; in the test with SNB-75 CNS it was 11.3 µM. Further, the TGI with HOP-62 NSCLC is 15.5 µM; in the test with SF-268 CNS it was 12 µM; in the test with NCI-H522 lung, 13.4 µM; in the test on SNB-19 CNS, 16.4 µM.

With `COC(=O)[C@]12CC[C@@H](C)[C@H](C)[C@@H]1C1=CC[C@@H]3[C@@]4(C)C[C@@H](OC(=O)/C=C/c5ccccc5)[C@H](O)[C@@](C)(CO)[C@@H]4[C@H](O)C[C@@]3(C)[C@]1(C)CC2`, the GI50 in the test on NCI/ADR-RES ovarian is 2.92 µM; with COLO 205 colon, 1.91 µM; with TK-10 renal it was 2.26 µM; in the test with MDA-MB-435, 2.44 µM; with 786-0 renal it was 1.87 µM; with SNB-75 CNS, 2.08 µM. Besides, the GI50 is 1.91 µM in the test on HOP-62 NSCLC, 2.62 µM with SF-268 CNS, 1.53 µM in the test on NCI-H522 lung and 3.51 µM with SNB-19 CNS. Also, the TGI in the test on NCI/ADR-RES ovarian was found to be 10.9 µM; in the test with COLO 205 colon, 4.12 µM; with TK-10 renal it was 6.33 µM; with MDA-MB-435 it was 6.47 µM; in the test on 786-0 renal, 3.82 µM; in the test on SNB-75 CNS, 12.9 µM. The TGI in the test with HOP-62 NSCLC was 5.43 µM; in the test with SF-268 CNS, 10.4 µM; in the test with NCI-H522 lung, 3.36 µM; in the test on SNB-19 CNS, 16.6 µM.

In the case of `COc1cc(-c2nc3sc(C)cn3c2/C=C2\C(=O)Nc3ccccc32)c(Br)c(OC)c1OC`, the GI50 in the test on NCI/ADR-RES ovarian was 28.3 µM; in the test on COLO 205 colon, 25.7 µM; in the test on TK-10 renal it was 32.9 µM; in the test on MDA-MB-435, 4.88 µM; with 786-0 renal it was 21.6 µM; with SNB-75 CNS, 22.2 µM. Besides, the GI50 in the test with HOP-62 NSCLC is 26.5 µM; in the test on SF-268 CNS, 44.7 µM; in the test on NCI-H522 lung it was 22.2 µM; in the test on SNB-19 CNS, 23.9 µM. In addition, the TGI turned out to be 82.5 µM with NCI/ADR-RES ovarian; 66.2 µM in the test on COLO 205 colon; 77.5 µM in the test with TK-10 renal; 23.2 µM in the test on MDA-MB-435; 50.5 µM in the test on 786-0 renal; 51.5 µM with SNB-75 CNS. For the same compound, the TGI was 88.7 µM in the test on HOP-62 NSCLC, greater than 100 µM in the test on SF-268 CNS, 57.3 µM with NCI-H522 lung and 63.9 µM in the test on SNB-19 CNS.

Regarding `O=C1C=CC(=C(c2ccccc2)c2ccc(O)cc2)C=C1`, the TGI in the test on NCI/ADR-RES ovarian is greater than 100 µM; with COLO 205 colon it was 49.7 µM; with TK-10 renal, 37.4 µM; with MDA-MB-435, 32.5 µM; in the test with 786-0 renal, greater than 100 µM; in the test with SNB-75 CNS, 38.2 µM. In addition, the TGI with HOP-62 NSCLC was greater than 100 µM; in the test on SF-268 CNS it was 43.3 µM; in the test on NCI-H522 lung, 28.2 µM; with SNB-19 CNS, 31.7 µM.

With `COc1cc(/C=C2\CCC/C(=C\c3ccc(O)c(OC)c3)C2=O)ccc1O`, the GI50 in the test with NCI/ADR-RES ovarian is 2.34 µM; in the test with COLO 205 colon it was 3.61 µM; in the test on TK-10 renal it was 2.8 µM; in the test on MDA-MB-435, 1.42 µM; with 786-0 renal, 1.67 µM; in the test with SNB-75 CNS, 3.64 µM and 1.99 µM. For the same compound, the GI50 is 1.79 µM in the test on HOP-62 NSCLC, 1.8 µM with SF-268 CNS, 1.12 µM in the test on NCI-H522 lung and 2.46 µM with SNB-19 CNS. The TGI with NCI/ADR-RES ovarian is 12.6 µM and 9.79 µM; in the test with COLO 205 colon, 24.4 µM and 13.6 µM; in the test with TK-10 renal it was 37.2 µM and 11.6 µM; in the test on 786-0 renal, 4.42 µM and 3.07 µM; with SNB-75 CNS, 12.7 µM and 13.7 µM; in the test on HOP-62 NSCLC, 8.32 µM and 3.95 µM. The TGI in the test on SF-268 CNS was 6.91 µM and 8.2 µM; in the test on NCI-H522 lung, 3.23 µM and 2.66 µM; in the test with SNB-19 CNS, 22.1 µM and 10.2 µM.

On to `Cn1c(=O)nc2n(-c3ccc(Cl)cc3)c3cc(Cl)ccc3nc-2c1=O`, for which the TGI in the test with NCI/ADR-RES ovarian was 35.6 µM; with COLO 205 colon it was 5.14 µM; with TK-10 renal, 37 µM; with MDA-MB-435, 3.14 µM; in the test with 786-0 renal, 23.7 µM; with SNB-75 CNS, 14.8 µM. Besides, the TGI with HOP-62 NSCLC was found to be 33.2 µM; in the test with SF-268 CNS it was 7.23 µM; in the test with NCI-H522 lung, 6.36 µM; in the test on SNB-19 CNS, 27.9 µM.
